Source: patent US4788063A, “Drug delivery system” (priority 1984, dated 1988)

Columns and labels:
memory disorders = conditions: SDAT patients, intravenous infusion at a rate of 3.4-14 μg/kg. hr; cited from earlier work
[1] = system: Whole blood cholinesterase; assay: whole blood cholinesterase after dermal application or intramuscular injection in pigs; type: in vivo; conditions: intramuscular injection, pigs (FIG. 1)
Method: (§1) Laboratory animal species used throughout this study consisted of albino guinea pigs of either sex of a local strain, (Dunkin-Hadley origin), weighing between 300-400 g, and female pigs of the large White and Lundrace strain, 8-12 weeks of age, weighing 8-14 kg.
(§2) At 30 minutes prior to dermal application of test solutions, the hair at the test sites was closely clipped. Only animals in which the skin at the test sites appeared grossly normal and was free of bites, scratches or bruises, were selected for the study.
(§3) Treatment solutions for dermal application were freshly prepared and applied to a pre-determined area of a commercially available pad, (micropad dressing 3M No. 1610, U.S. Pat. No. 3,285,245) which in turn was secured to dorsal test-sites by an adhesive bandage, serving at the same time as an occlusive dressing. […] Intervals between bleedings were 2 hours in guinea pigs, and 30 minutes in pigs.
(§4) Cholinesterase Determinations: Whole blood cholinesterase activity was determined by the method of Ellman [G.L. Ellman et al, Biochem. Pharmacol. 7, 83 (1961)], or by that described by Johnson and Russell [C.D. Johnson and R. L. Russell, Anal Biochem 64, 229 (1975)]. Data obtained in experimental animals (guinea pigs and pigs) show a remarkable prolonging of the duration of action of the dermally applied drug when compared with systemic administration.

[2] = system: Whole blood cholinesterase; assay: whole blood cholinesterase after dermal application or injection in guinea pigs; type: in vivo; conditions: injection, guinea pigs (FIG. 2)
Method: as §1, §2, §3, §4

In the case of `CNC(=O)Oc1ccc2c(c1)[C@]1(C)CCN(C)[C@@H]1N2C` [physostigmine], the “effect on memory disorders” value (memory disorders) is listed as “improvement in memory disorders”, the “duration of the effect” value [1] is listed as 2 to 3 h and the “duration of the effect” value [2] is listed as 2 to 3 h.
